Source: ChEMBL document CHEMBL3046008, “Phenolics and their antifungal role in grapevine wood decay: focus on the Botryosphaeriaceae family” (J Agric Food Chem, 2012)
Activity calls are given as the source filed them. No cut-off for these calls is given here.

Experiments:
Phaeoacremonium minimum = assay: Antifungal activity against Togninia minima SO21 assessed as susceptibility at 500 uM measured after 1 to 10 days; assay type: functional, organism-based
Diplodia seriata [1] = assay: Antifungal activity against Diplodia seriata assessed as growth inhibition at 500 uM measured after 1 to 10 days relative to control; assay type: functional
Neofusicoccum parvum [2] = assay: Antifungal activity against Neofusicoccum parvum assessed as growth inhibition at 500 uM measured after 1 to 10 days relative to control; assay type: functional
Diplodia seriata [3] = assay: Antifungal activity against Diplodia seriata assessed as mycelium seemed to be halted measured after 2 days environmental scanning electron microscopy; assay type: functional, organism-based
Neofusicoccum parvum [4] = assay: Antifungal activity against Neofusicoccum parvum assessed as growth inhibition measured after 1 to 10 days; assay type: functional, organism-based
Diplodia seriata [5] = assay: Antifungal activity against Diplodia seriata assessed as mycelium denser around the initial plug and colonizing measured after 2 days by macroscopic analysis; assay type: functional, organism-based
Diplodia seriata [6] = assay: Antifungal activity against Diplodia seriata assessed as growth inhibition measured after 1 to 10 days; assay type: functional, organism-based
Eutypa lata [7] = assay: Antifungal activity against Eutypa lata BX1-10 assessed as growth inhibition measured after 1 to 10 days; assay type: functional, organism-based
[8] = tested on: Phaeomoniella chlamydospora; assay: Antifungal activity against Phaeomoniella chlamydospora assessed as growth inhibition at 500 uM measured after 1 to 10 days relative to control; assay type: functional
Eutypa lata [9] = assay: Antifungal activity against Eutypa lata BX1-10 assessed as growth inhibition at 500 uM measured after 1 to 10 days relative to control; assay type: functional
Eutypa lata [10] = assay: Induction of Eutypa lata BX1-10 growth at 500 uM; assay type: functional, organism-based

| SMILES | Activity (Phaeoacremonium minimum) | growth inhibition (GI) (Diplodia seriata [1]) | growth inhibition (GI) (Neofusicoccum parvum [2]) | also measured |
| --- | --- | --- | --- | --- |
| Oc1cc(O)c2c(c1)O[C@H](c1ccc(O)c(O)c1)[C@@H](O)C2 | inactive | – | – | – |
| O=C(O)/C=C/c1ccc(O)cc1 | inactive | – | – | – |
| Oc1ccc([C@H]2c3c(O)cc(O)cc3[C@H]3c4c(cc(O)cc4[C@@H]2c2cc(/C=C/c4cc(O)cc5c4[C@H](c4cc(O)cc(O)c4)[C@@H](c4ccc(O)cc4)O5)ccc2O)O[C@@H]3c2ccc(O)cc2)cc1 | inactive | Active | Active | – |
| COc1cc(/C=C/c2ccc(O)cc2)cc(OC)c1 [PTEROSTILBENE] | inactive | Active | Active | Activity (Diplodia seriata [3]): Active; IC50 (Neofusicoccum parvum [4]): 250 µM; Activity (Diplodia seriata [5]): Active; IC50 (Diplodia seriata [6]): 163 µM; IC50 (Eutypa lata [7]): 251 µM |
| Oc1ccc([C@H]2Oc3cc(O)cc(/C=C/c4ccc5c(c4)[C@@H](c4cc(O)cc6c4[C@H](c4cc(O)cc(O)c4)[C@@H](c4ccc(O)cc4)O6)[C@H](c4ccc(O)cc4)O5)c3[C@@H]2c2cc(O)cc(O)c2)cc1 | inactive | Active | Active | – |
| COc1cc(C(=O)O)ccc1O | inactive | – | – | – |
| Oc1ccc([C@H]2c3c(O)cc(O)cc3[C@H]3c4c(cc(O)cc4[C@@H]2O)O[C@@H]3c2ccc(O)cc2)cc1 | inactive | Active | Active | – |
| COc1cc(/C=C/C(=O)O)ccc1O [FERULATE] | inactive | – | – | fold change (FC) [8]: 1.4; fold change (FC) (Diplodia seriata [1]): 1.6; fold change (FC) (Eutypa lata [9]): 2.2; fold change (FC) (Neofusicoccum parvum [2]): 1.5 |
| O=C(/C=C/c1ccc(O)c(O)c1)O[C@@H]1C[C@](O)(C(=O)O)C[C@@H](O)[C@H]1O | inactive | – | – | – |
| OC[C@H]1O[C@@H](Oc2cc(O)cc(/C=C/c3ccc(O)cc3)c2)[C@H](O)[C@@H](O)[C@@H]1O | inactive | Active | Active | – |
| O=C(O)/C=C/c1ccc(O)c(O)c1 | inactive | – | – | – |
| O=c1c(O)c(-c2ccc(O)c(O)c2)oc2cc(O)cc(O)c12 | inactive | – | – | Activity (Eutypa lata [10]): Active |
| Oc1cc(O)c2c(c1)O[C@H](c1ccc(O)c(O)c1)[C@H](O)C2 | inactive | – | – | – |
| Oc1ccc(/C=C/c2cc(O)cc(O)c2)cc1 [RESVERATROL] | inactive | – | – | fold change (FC) (Diplodia seriata [1]): 1.6; fold change (FC) (Eutypa lata [9]): 1.7; fold change (FC) (Neofusicoccum parvum [2]): 1.1 |
| COc1cc(/C=C/C(=O)O)cc(OC)c1O | inactive | – | – | – |
| Oc1ccc(/C=C/c2cc(O)cc3c2[C@@H](c2cc(O)cc(O)c2)[C@H](c2ccc(O)cc2)O3)cc1 [EPSILON-VINIFERIN] | inactive | Active | Active | IC50 (Diplodia seriata [6]): 260 µM |
| COc1cc(C(=O)O)cc(OC)c1O | inactive | – | – | – |
| O=c1c(O)c(-c2ccc(O)cc2)oc2cc(O)cc(O)c12 | inactive | – | – | growth inhibition (GI) (Eutypa lata [9]): inactive |
| Oc1cc(O)cc(/C=C/c2ccc(O)c(O)c2)c1 [PICEATANNOL] | inactive | Active | Active | IC50 (Diplodia seriata [6]): 299 µM |
| O=C(O[C@@H]1Cc2c(O)cc(O)cc2O[C@@H]1c1ccc(O)c(O)c1)c1cc(O)c(O)c(O)c1 | inactive | – | – | – |
| O=C(O)c1cc(O)c(O)c(O)c1 | inactive | – | – | – |
